In ChEMBL document CHEMBL3885881, “DrugMatrix”:

Species: Rattus norvegicus
Assay: DrugMatrix - Regimen: Daily Repeat
Format: toxicity, organism-based, Sprague-Dawley
Parameters: regimen Daily Repeat, gender Male, age 6-8 weeks
Settings: in vivo, po, route oral GAVAGE, […]; for ABSOLUTE BASOPHIL / ABSOLUTE EOSINOPHIL / ABSOLUTE LYMPHOCYTE / ABSOLUTE MONOCYTE / ABSOLUTE SEGMENTED NEUTROPHIL / BASOPHIL / EOSINOPHIL / ERYTHROCYTE COUNT / HEMATOCRIT / HEMOGLOBIN / LEUKOCYTE COUNT / LYMPHOCYTE / MEAN CORPUSCULAR HEMOGLOBIN / MEAN CORPUSCULAR HEMOGLOBIN CONCENTRATION / MEAN CORPUSCULAR VOLUME / MONOCYTE / NEUTROPHIL / NUCLEATED RED BLOOD CELLS / PLATELET COUNT: tissue Blood; for ALANINE AMINOTRANSFERASE / ALBUMIN / ALKALINE PHOSPHATASE / ASPARTATE AMINOTRANSFERASE / BLOOD UREA NITROGEN / CARBON DIOXIDE / CHLORIDE / CHOLESTEROL / CREATINE PHOSPHOKINASE / CREATININE / GLUCOSE / LACTATE DEHYDROGENASE / LIPASE / PHOSPHORUS / POTASSIUM / SODIUM / TOTAL BILIRUBIN / TOTAL PROTEIN / URIC ACID: tissue Plasma
[1] = 0 mg/kg, 72 h, dose level Control, time 3 day
[2] = 0 mg/kg, 120 h, dose level Control, time 5 day
[3] = 10 mg/kg, 72 h, dose level Low, time 3 day

COCCOC(=O)C1=C(C)NC(C)=C(C(=O)OC(C)C)C1c1cccc([N+](=O)[O-])c1 (centres undefined) [NIMODIPINE]
ABSOLUTE BASOPHIL [1]: 0 CELLS/uL
ABSOLUTE EOSINOPHIL [1]: 0 CELLS/uL
ABSOLUTE LYMPHOCYTE [1]: 9244.83 CELLS/uL
ABSOLUTE MONOCYTE [1]: 102 CELLS/uL
ABSOLUTE SEGMENTED NEUTROPHIL [1]: 869.83 CELLS/uL
BASOPHIL [1]: 0%
EOSINOPHIL [1]: 0%
ERYTHROCYTE COUNT [1]: 5.43 x10E6/uL
HEMATOCRIT [1]: 34.03%
HEMOGLOBIN [1]: 13.27 G/DL
LEUKOCYTE COUNT [1]: 10.22 x10E3/uL
LYMPHOCYTE [1]: 90.33%
MEAN CORPUSCULAR HEMOGLOBIN [1]: 24.48 pg
MEAN CORPUSCULAR HEMOGLOBIN CONCENTRATION [1]: 39.03 G/DL
MEAN CORPUSCULAR VOLUME [1]: 62.75 fL
MONOCYTE [1]: 1%
NEUTROPHIL [1]: 8.67%
NUCLEATED RED BLOOD CELLS [1]: 0.17 /100WBC
PLATELET COUNT [1]: 989 x10E3/uL
ALANINE AMINOTRANSFERASE [1]: 77 u/L
ALBUMIN [1]: 3.97 G/DL
ALKALINE PHOSPHATASE [1]: 464.83 u/L
ASPARTATE AMINOTRANSFERASE [1]: 89.83 u/L
BLOOD UREA NITROGEN [1]: 12.17 mg/dL
CARBON DIOXIDE [1]: 34.17 mmol/L
CHLORIDE [1]: 98.33 MEQ/L
CHOLESTEROL [1]: 75.17 mg/dL
CREATINE PHOSPHOKINASE [1]: 367.67 u/L
CREATININE [1]: 0.16 mg/dL
GLUCOSE [1]: 142.67 mg/dL
LACTATE DEHYDROGENASE [1]: 139.33 u/L
LIPASE [1]: 9.5 u/L
PHOSPHORUS [1]: 10.85 mg/dL
POTASSIUM [1]: 6.38 MEQ/L
SODIUM [1]: 143.2 MEQ/L
TOTAL BILIRUBIN [1]: 0.2 mg/dL
TOTAL PROTEIN [1]: 5.77 G/DL
URIC ACID [1]: 0.7 mg/dL
ABSOLUTE BASOPHIL [2]: 0 CELLS/uL
ABSOLUTE EOSINOPHIL [2]: 0 CELLS/uL
ABSOLUTE LYMPHOCYTE [2]: 8295.33 CELLS/uL
ABSOLUTE MONOCYTE [2]: 84.67 CELLS/uL
ABSOLUTE SEGMENTED NEUTROPHIL [2]: 970 CELLS/uL
BASOPHIL [2]: 0%
EOSINOPHIL [2]: 0%
ERYTHROCYTE COUNT [2]: 5.74 x10E6/uL
HEMATOCRIT [2]: 36.22%
HEMOGLOBIN [2]: 13.85 G/DL
LEUKOCYTE COUNT [2]: 9.35 x10E3/uL
LYMPHOCYTE [2]: 88.67%
MEAN CORPUSCULAR HEMOGLOBIN [2]: 24.13 pg
MEAN CORPUSCULAR HEMOGLOBIN CONCENTRATION [2]: 38.25 G/DL
MEAN CORPUSCULAR VOLUME [2]: 63.08 fL
MONOCYTE [2]: 1%
NEUTROPHIL [2]: 10.33%
NUCLEATED RED BLOOD CELLS [2]: 0.17 /100WBC
PLATELET COUNT [2]: 883.83 x10E3/uL
ALANINE AMINOTRANSFERASE [2]: 64.5 u/L
ALBUMIN [2]: 4.12 G/DL
ALKALINE PHOSPHATASE [2]: 425.67 u/L
ASPARTATE AMINOTRANSFERASE [2]: 88.5 u/L
BLOOD UREA NITROGEN [2]: 14.17 mg/dL
CARBON DIOXIDE [2]: 30.5 mmol/L
CHLORIDE [2]: 100.33 MEQ/L
CHOLESTEROL [2]: 55.33 mg/dL
CREATINE PHOSPHOKINASE [2]: 287.17 u/L
CREATININE [2]: 0.2 mg/dL
GLUCOSE [2]: 162.83 mg/dL
LACTATE DEHYDROGENASE [2]: 111.33 u/L
LIPASE [2]: 10.5 u/L
PHOSPHORUS [2]: 10.32 mg/dL
POTASSIUM [2]: 5.13 MEQ/L
SODIUM [2]: 143.93 MEQ/L
TOTAL BILIRUBIN [2]: 0.17 mg/dL
TOTAL PROTEIN [2]: 5.9 G/DL
URIC ACID [2]: 0.77 mg/dL
ABSOLUTE BASOPHIL [3]: 0 CELLS/uL
ABSOLUTE EOSINOPHIL [3]: 0 CELLS/uL
ABSOLUTE LYMPHOCYTE [3]: 10257 CELLS/uL
ABSOLUTE MONOCYTE [3]: 34.33 CELLS/uL
ABSOLUTE SEGMENTED NEUTROPHIL [3]: 975.33 CELLS/uL
BASOPHIL [3]: 0%
EOSINOPHIL [3]: 0%
ERYTHROCYTE COUNT [3]: 5.25 x10E6/uL
HEMATOCRIT [3]: 33.27%
HEMOGLOBIN [3]: 13.03 G/DL
LEUKOCYTE COUNT [3]: 11.27 x10E3/uL
LYMPHOCYTE [3]: 92%
MEAN CORPUSCULAR HEMOGLOBIN [3]: 24.83 pg
MEAN CORPUSCULAR HEMOGLOBIN CONCENTRATION [3]: 39.2 G/DL
MEAN CORPUSCULAR VOLUME [3]: 63.37 fL
MONOCYTE [3]: 0.33%
NEUTROPHIL [3]: 7.67%
NUCLEATED RED BLOOD CELLS [3]: 0 /100WBC
PLATELET COUNT [3]: 1138 x10E3/uL
ALANINE AMINOTRANSFERASE [3]: 72.67 u/L
ALBUMIN [3]: 3.87 G/DL
ALKALINE PHOSPHATASE [3]: 445.67 u/L
ASPARTATE AMINOTRANSFERASE [3]: 88 u/L
BLOOD UREA NITROGEN [3]: 12 mg/dL
CARBON DIOXIDE [3]: 33 mmol/L
CHLORIDE [3]: 99 MEQ/L
CHOLESTEROL [3]: 69.67 mg/dL
CREATINE PHOSPHOKINASE [3]: 468 u/L
CREATININE [3]: 0.2 mg/dL
GLUCOSE [3]: 153.33 mg/dL
LACTATE DEHYDROGENASE [3]: 135.67 u/L
LIPASE [3]: 10.67 u/L
PHOSPHORUS [3]: 11.03 mg/dL
POTASSIUM [3]: 6.2 MEQ/L
SODIUM [3]: 144.23 MEQ/L
TOTAL BILIRUBIN [3]: 0.17 mg/dL
TOTAL PROTEIN [3]: 5.57 G/DL
URIC ACID [3]: 0.7 mg/dL
